The target of the assay is PD-1/PD-L1 (Homo sapiens (Human), UniProt Q9NZQ7). Kind of assay: Homogeneous time-resolved fluorescence (HTRF) binding assay. To be noted: CisBio kit, read-out: IC50 of compounds binding to PD-1/PD-L1. From the text: Effect embodiment 1: Homogenouse time-resolved fluorescence
Sequence of PD-1/PD-L1 (Q9NZQ7 19-238): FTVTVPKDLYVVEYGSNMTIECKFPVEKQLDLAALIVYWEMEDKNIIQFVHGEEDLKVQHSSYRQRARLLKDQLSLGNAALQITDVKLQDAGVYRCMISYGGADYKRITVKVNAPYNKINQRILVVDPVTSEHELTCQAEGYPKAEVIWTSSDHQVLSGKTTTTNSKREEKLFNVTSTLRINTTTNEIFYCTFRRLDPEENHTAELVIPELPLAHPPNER
Homogeneous time-resolved fluorescence (HTRF) binding assay was used to determine the binding ability of the compound of the present disclosure to PD-1/PD-L1.
The purchased kit (CisBio, #64CUS000C-1) contained reagents required for assays such as PD-1, PD-L1, anti-tag1-Eu, Anti-tag2-XL665, dilute buffer, and detection buffer.
1. The compound was formulated to 10 concentrations with a 3-fold gradient with 100% DMSO.
2. The DMSO solution of the compound was added to the dilute buffer, mixed thoroughly, then transferred to a 96-well plate.
3. PD-L1 was diluted with dilute buffer, then added to the above 96-well plate.
4. PD-1 was diluted with dilute buffer and added to the above 96-well plate, which was then incubated at room temperature for 30 minutes.
5. A portion of anti-tag1-Eu and a portion of anti-tag2-XL665 were added to the detection buffer, mixed thoroughly and transferred to the above 96-well plate.
6. The mixture in the above 96-well plate was incubated at room temperature for 1 to 24 hours.
7. HTRF values were read with Envision.
On to `N#Cc1c(/C=C/c2ccc(CN3CCCC[C@H]3C(=O)O)cc2C(F)(F)F)cccc1-c1ccccc1` [Compound 1, (S,E)-1-(4-(2-(2-Cyano-[1,1′-biphenyl]-3-yl)vinyl)-3-trifluoromethylbenzyl)piperidine-2-carboxylic acid], for which the IC50 came out at 10.2 nM.
As for `N#Cc1c(/C=C/c2ccc(CN3CCCC[C@H]3C(=O)O)cc2Cl)cccc1-c1ccccc1` [Compound 2, (S,E)-1-(3-Chloro-4-(2-(2-cyano-[1,1′-biphenyl]-3-yl)vinyl)benzyl)piperidine-2-carboxylic acid], the figure is 26.3 nM; as for `Cc1c(/C=C/c2ccc(CN3CCCC[C@H]3C(=O)O)cc2Cl)cccc1-c1ccccc1` [Compound 3, (S,E)-1-(3-Chloro-4-(2-(2-methyl-[1,1′-biphenyl]-3-yl)vinyl)benzyl)piperidine-2-carboxylic acid], 87.1 nM.
Consider `Cc1c(/C=C/c2ccc(CN3CCCC[C@H]3C(=O)O)cc2C(F)(F)F)cccc1-c1ccccc1` [Compound 4, (S,E)-1-(4-(2-(2-Methyl-[1,1′-biphenyl]-3-yl)vinyl)-3-trifluoromethylbenzyl)piperidine-2-carboxylic acid], for which the IC50 came to 10.7 nM.
Turning to `Cc1cc(/C=C/c2cccc(-c3ccccc3)c2C)c(Cl)cc1CN1CCCC[C@H]1C(=O)O` [Compound 5, (S,E)-1-(5-Chloro-2-methyl-4-(2-(2-methyl-[1,1′-biphenyl]-3-yl)vinyl)benzyl)piperidine-2-carboxylic acid], the IC50 was found to be 6.5 nM.
Consider `COc1cc(/C=C/c2cccc(-c3ccccc3)c2C)c(C(F)(F)F)cc1CN1CCCC[C@H]1C(=O)O` [Compound 6, (S,E)-1-(2-Methoxy-4-(2-(2-methyl-[1,1′-biphenyl]-3-yl)vinyl)-5-trifluoromethylbenzyl)piperidine-2-carboxylic acid], for which the IC50 amounted to 1.6 nM.
As for `COc1cc(/C=C/c2cccc(-c3ccccc3)c2C#N)c(C(F)(F)F)cc1CN1CCCC[C@H]1C(=O)O` [Compound 7, (S,E)-1-(4-(2-(2-Cyano-[1,1′-biphenyl]-3-yl)vinyl)-2-methoxy-5-trifluoromethylbenzyl)piperidine-2-carboxylic acid], the figure is 1.9 nM; as for `Cc1cc(/C=C/c2cccc(-c3ccccc3)c2C#N)c(Cl)cc1CN1CCCC[C@H]1C(=O)O` [Compound 8, (S,E)-1-(5-Chloro-4-(2-(2-cyano-[1,1′-biphenyl]-3-yl)vinyl)-2-methylbenzyl)piperidine-2-carboxylic acid], 1.6 nM.
`Cc1cc(/C=C/c2cccc(-c3ccccc3)c2C#N)c(Cl)cc1CN1CCOC[C@H]1C(=O)O` [Compound 9, (S,E)-4-(5-Chloro-4-(2-(2-cyano-[1,1′-biphenyl]-3-yl)vinyl)-2-methylbenzyl)morpholine-3-carboxylic acid]: the IC50 came to 25.8 nM.
With `Cc1cc(CN2CCCC[C@H]2C(=O)O)c(C)cc1/C=C/c1cccc(-c2ccccc2)c1C#N` [Compound 10], the IC50 was 4.2 nM.
With `Cc1cc(CN2CCOC[C@H]2C(=O)O)c(C)cc1/C=C/c1cccc(-c2ccccc2)c1C#N` [Compound 11, (S,E)-4-(4-(2-(2-Cyano-[1,1′-biphenyl]-3-yl)vinyl)-2,5-dimethylbenzyl)morpholine-3-carboxylic acid], the IC50 was found to be 10.1 nM.
Turning to `Cc1cc(CN[C@@](C)(CO)C(=O)O)c(C)cc1/C=C/c1cccc(-c2ccccc2)c1C#N` [Compound 12, (S,E)-2-((4-(2-(2-Cyano-[1,1′-biphenyl]-3-yl)vinyl)-2,5-dimethylbenzyl)amino)-3-hydroxy-2-methylpropionic acid], the IC50 is 3.4 nM.
On to `Cc1cc(/C=C/c2cccc(-c3ccccc3)c2C#N)c(Cl)cc1CN1CCNC[C@H]1C(=O)O` [Compound 13, (S,E)-1-(5-Chloro-4-(2-(2-cyano-[1,1′-biphenyl]-3-yl)vinyl)-2-methylbenzyl)piperazine-2-carboxylic acid], for which the IC50 was 46 nM.
